No end group written: not given here.
Columns and labels:
AsPC-1 = assay: Tat-CTMP with gemcitabine, % active caspase-3 by flow cytometry; type: cell-based, human; conditions: in the presence of gemcitabine (30 nM); 24 hours
Experimental: In these experiments, a combination of gemcitabine, a commonly-used chemotherapeutic drug for pancreas cancer and Tat-CTMP were tested in our in vitro model. In this study, two human pancreas adenocarcinoma cell lines (Panc-1 and AsPC-1) were treated with TAT-CTMP and TAT-CTMP in the presence and absence of gemcitabine (30 nM). […] Cells were subsequently harvested and % active caspase-3 was assessed by flow cytometry. Each experimental group represents an n=3. […] This experiment was repeated twice with multiple murine and human lines with similar results. (B and C) Antitumor effects of CTMP4 are the result of inhibition of Akt3 and its downstream effectors. […] Samples were treated for 1 hour prior to preparation of cell lysates. Immunoblots were subsequently prepared and stained with (B) anti-total AKT and phospho-AKT ([…]) and (C) anti-total GSK-3β and phospho GSK-3β.

Akt = assay: Western blot of phospho-Akt (Ser-473) in cell lysates; type: cell-based, human; conditions: Panc-1; one hour after treatment; wortmannin 1 μM, TAT-CTMP 10 μM
Experimental: In addition we looked at down stream effector GSK-3β using antibodies directed at GSK-3β and phospho GSK-3β.
Cells were subsequently harvested and % active caspase-3 was assessed by flow cytometry. Each experimental group represents an n=3. […] This experiment was repeated twice with multiple murine and human lines with similar results. (B and C) Antitumor effects of CTMP4 are the result of inhibition of Akt3 and its downstream effectors. […] Samples were treated for 1 hour prior to preparation of cell lysates. Immunoblots were subsequently prepared and stained with (B) anti-total AKT and phospho-AKT (Ser^473) and (C) anti-total GSK-3β and phospho GSK-3β.

[1] = system: murine pancreas cancer cells; assay: apoptosis screen of TAT-CTMP fusion peptides, murine cells; type: cell-based
Experimental: (§1) Tumor Cells are seeded at a density of 0.2 to 0.5×10^6 cells per mL in 12-well plates and incubated at 37° C. for at least 24 hours (murine cancer cells) or 48 hours (Human cancer cells). After incubation, S2-fusion protein is added to the cell culture medium. The cells are then incubated for 18 hours (active caspase 3) or 24 hours (TUNEL) at 37° C. in humidified 5% CO2. Apoptosis is detected by FACS analysis after staining cells for active caspase-3 (Cell Signaling, Boston, Mass.) or with the APO-BRDU kit (Phenix Flow Systems, San Diego, Calif.). Briefly, cells are washed with PBS, treated with trypsin-EDTA to remove adhesion molecules, and washed again. After centrifugation at 1,200 rpm for 10 min, cells are fixed with 1% paraformaldehyde and washed with PBS. After centrifugation at 1,800 rpm for 10 min, cells are fixed with 90% methanol at −20° C. and washed with PBS. Each pellet is resuspended in 1:100 anti-active caspase-3 antibody (1 μg/ml caspase 3, PBS with 5% FBS) or Br-duTP with TdT, and incubated overnight at 4° C. […] Cell fluorescence signals is determined using a FACScan flow cytometer (BD Biosciences) and analyzed with CellQuest software (BD Biosciences) to measure the percentage of apoptotic cells. […]

[2] = system: human pancreas cancer cells; assay: apoptosis screen of TAT-CTMP fusion peptides, human cells; type: cell-based
Experimental: as §1

pancreas cancer cells = assay: TAT-CTMP with radiation, apoptosis; type: cell-based; conditions: cotreatment with radiation
Description: CTMP binds to the C-terminal regulatory domain of Akt, inhibiting phosphorylation of Ser^473 and activation of Akt, and thereby promotes apoptosis. CTMP is highly conserved between mouse and human (85% of the residues are identical or conservative replacements) and has two functional domains, a highly structured N-terminal domain and a C-terminal thioesterase domain. Within the N-terminal domain there are four peptides that have structural elements that meet the criteria described by Maira et al (Science 294: 374-380, 2001) as mediating the interaction with Akt. In these experiments, we synthesized TAT-fusion peptides of each of these four domains and screened them for their ability to induce apoptosis in pancreas cancer cells. […] In FIG. 4, the left panel (A), presents a helical wheel diagram (Schiffer, M. and Edmundson, A. B., Biophys. J. 7, 121-135, 1967) of the active domain of CTMP. […] Furthermore, cotreatment with TAT-CTMP4 and radiation results in increased apoptosis (FIG. 4, right panel).

[3] = system: human pancreatic cancer cell lines; assay: S2-BH3 apoptosis in human pancreatic cancer cell lines; type: cell-based; conditions: up to 10 μM
Experimental: as §1

[4] = system: murine pancreatic cancer cell lines; assay: S2-BH3 apoptosis in murine pancreatic cancer cell lines; type: cell-based; conditions: up to 10 μM
Experimental: as §1

[5] = system: established murine pancreas cancers; assay: systemic (intraperitoneal) S2-BH3 in mice with established pancreas cancers; conditions: seven intraperitoneal doses over 14 days
Experimental: The intradermal location is used to facilitate accurate tumor measurements. Tumor diameter is measured with calipers every two days in two dimensions and the data are recorded. Mice are euthanized when the tumors reach 2 cm or ulcerate. In the subcutaneous model, 100,000 Panc-02 cells are utilized.
In these experiments, we have completed the first in vivo administration of our novel therapeutic.

Compound	apoptosis (% active caspase-3) (AsPC-1)	active phospho-AKT (Ser-473) (Akt)	apoptosis [1]	apoptosis [2]	radiation-induced apoptosis (pancreas cancer cells)	apoptosis [3]	apoptosis [4]	tumor growth rate ([5]; 400 μg)	Median Survival ([5]; n = 12 mice per group) [days]
TAT-CTMP: TAT-fusion peptide of the active N-terminal domain peptide CTMP4 of CTMP (YGRKKRRQRRRLDPKLMKEEQMSQAQLFTRSFDDGL)	additive increase in apoptosis	decreased active phospho-AKT	induced appreciable apoptosis	induced appreciable apoptosis	sensitizes pancreas cancer cells to radiation-induced apoptosis in a dose dependent fashion	–	–	–	–
COc1ccc(C)cc1NC(=O)OC1C[C@H]2CCC[C@@H](C1)N2CCCCCCN (some centres unmarked) [SV119]	–	–	–	–	–	low, concentration-dependent level of apoptosis	low, concentration-dependent level of apoptosis	–	–
S2-BH3-in: control peptide: SW141 sigma-2 amino acid coupled to mutated inactive BH3 sequence EIWIAQEARRIGAEFNAYYAR (SEQ ID NO: 3) (also: SW141 sigma-2 ligand conjugated; listed as Homo sapiens)	–	–	–	–	–	no appreciable apoptosis	no appreciable apoptosis	not	35
